Our source for the IC50 values is US12570666B2, “Furoindazole derivatives” (Bayer Aktiengesellschaft, priority 2019, dated 2026).

The target in the assay is T1, human GPR84 receptor (Homo sapiens, UniProt Q9NQS5).
T1 construct: frozen aliquots prepared by acCELLerate; host or cells: CHO-K1
As to the kind of experiment: cAMP HTRF assay for identification of cellular GPR84 antagonists. The format is cell-based. The conditions noted are these: CHO-K1 cells stably expressing human GPR84; Forskolin + agonist 6-OAU (EC80); average or median values. In a few lines:
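Forskolin-stimulated CHO-K1 cells stably expressing human GPR84, agonist-suppressed cAMP measured by HTRF (665/620 ratio) after lysis. Compounds at 11 concentrations, 20 μM to 0.07 nM, duplicate; normalized to DMSO and no-agonist controls; IC50 by 4-parameter fit.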
(TR-FRET usually uses a lanthanide donor and a delayed reading to cut background.)

T1 sequence (Q9NQS5 whole entry): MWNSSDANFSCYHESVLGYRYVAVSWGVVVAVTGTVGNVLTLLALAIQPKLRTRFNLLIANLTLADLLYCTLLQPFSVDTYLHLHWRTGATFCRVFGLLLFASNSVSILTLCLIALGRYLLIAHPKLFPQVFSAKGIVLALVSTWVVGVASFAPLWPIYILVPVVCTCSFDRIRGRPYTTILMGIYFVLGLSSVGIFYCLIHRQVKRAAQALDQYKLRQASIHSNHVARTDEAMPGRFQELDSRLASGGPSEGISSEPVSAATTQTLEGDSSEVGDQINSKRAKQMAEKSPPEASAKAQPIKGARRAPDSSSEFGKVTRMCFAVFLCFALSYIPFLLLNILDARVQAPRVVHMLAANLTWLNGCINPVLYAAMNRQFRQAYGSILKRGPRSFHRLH

The IC50 is the midpoint of a concentration-inhibition curve. For the compound `O=C(NC[C@@H]1COCCO1)c1oc2c(c1C(F)(F)F)-c1nn(CC3CCN(C(=O)c4ccccc4)CC3)cc1CC2` [Example 287, 2-[(1-benzoylpiperidin-4-yl)methyl]-N-{[(2R)-1,4-dioxan-2-yl]methyl}-8-(trifluoromethyl)-4,5-dihydro-2H-furo[2,3-g]indazole-7-carboxamide], the IC50 came to 10 nM.

With `Cc1c(C(=O)NC[C@@H]2CCCO2)oc2c1-c1nn(C[C@H]3COCCO3)cc1C1(CC1)C2` [Example 125, 2′-[(2S)-1,4-dioxan-2-ylmethyl]-8′-methyl-N-[(2S)-tetrahydrofuran-2-ylmethyl]-2′,5′-dihydrospiro[cyclopropane-1,4′-furo[2,3-g]indazole]-7′-carboxamide], the IC50 worked out at 51 nM.

`Cc1c(C(=O)NC[C@@H]2CCCO2)oc2c1-c1nn(CC3(C)COC3)cc1CC2` [Example 93, 8-methyl-2-[(3-methyloxetan-3-yl)methyl]-N-[(2S)-tetrahydrofuran-2-ylmethyl]-4,5-dihydro-2H-furo[2,3-g]indazole-7-carboxamide]: the IC50 is 17 nM.

For the compound `Cc1cc(Cn2cc3c(n2)-c2c(oc(C(=O)NC[C@@H]4CCCO4)c2C)CC3)ccn1` [Example 79, 8-methyl-2-[(2-methylpyridin-4-yl)methyl]-N-[(2S)-tetrahydrofuran-2-ylmethyl]-4,5-dihydro-2H-furo[2,3-g]indazole-7-carboxamide], the IC50 was found to be 58 nM.

Turning to `O=C(NCc1ncco1)c1oc2c(c1C1CC1)-c1nn(Cc3ccccn3)cc1CC2` [Example 122, 8-cyclopropyl-N-(1,3-oxazol-2-ylmethyl)-2-(pyridin-2-ylmethyl)-4,5-dihydro-2H-furo[2,3-g]indazole-7-carboxamide], the IC50 is 61 nM.

For `O=C(NCCc1c[nH]cn1)c1oc2c(c1C(F)(F)F)-c1nn(C[C@H]3COCCO3)cc1CC2` [Example 235, 2-[(2S)-1,4-Dioxan-2-ylmethyl]-N-[2-(1 H-imidazol-4-yl)ethyl]-8-(trifluormethyl)-4,5-dihydro-2H-furo[2,3-g]indazol-7-carboxamide], the IC50 worked out at 1600 nM.

On to `O=C(NC[C@@H]1CCCO1)c1oc2c(c1C(F)(F)F)-c1nn(Cc3ccncc3)cc1C1(CC1)C2` [Example 217, 2′-(Pyridin-4-ylmethyl)-N-[(2S)-tetrahydrofuran-2-ylmethyl]-8′-(trifluormethyl)-2′,5′-dihydrospiro[cyclopropan-1,4′-furo[2,3-g]indazol]-7′-carboxamide], for which the IC50 was found to be 6 nM.

As to `C[C@@H]1Cc2oc(C(=O)NC[C@@H]3COCCO3)c(C(F)(F)F)c2-c2nn(CC3CCN(C(=O)C4(O)CC4)CC3)cc21` (single isomer, unassigned) [Example 295, (4R or 4S)-N-{[(2R)-1,4-dioxan-2-yl]methyl}-2-{[1-(1-hydroxycyclopropane-1-carbonyl)piperidin-4-yl]methyl}-4-methyl-8-(trifluoromethyl)-4,5-dihydro-2H-furo[2,3-g]indazole-7-carboxamide], the IC50 amounted to 8 nM.

As to `Cc1c(C(=O)NCC2CC3(CC3)CO2)oc2c1-c1nn(C[C@H]3COCCO3)cc1C1(CC1)C2` (mixture of isomers) [Example 200], the IC50 stood at 111 nM.

As to `Cc1c(C(=O)NC[C@@H]2COCCO2)oc2c1-c1nn(C[C@H]3COCCO3)cc1C(C)C2` (mixture of isomers) [Example 248, (4±)-N-{[(2R)-1,4-dioxan-2-yl]methyl}-2-{[(2S)-1,4-dioxan-2-yl]methyl}-4,8-dimethyl-4,5-dihydro-2H-furo[2,3-g]indazole-7-carboxamide], the IC50 was 145 nM.

Regarding `Cc1c(C(=O)NCC2CCOCC2)oc2c1-c1nn(Cc3ccccn3)cc1CC2` [Example 171], the concentration for half-maximal inhibition (IC50) was 3690 nM.

With `Cc1ncccc1Cn1cc2c(n1)-c1c(oc(C(=O)NC[C@@H]3COCCO3)c1C)CC2` [Example 74, N-[(2R)-1,4-dioxan-2-ylmethyl]-8-methyl-2-[(2-methylpyridin-3-yl)methyl]-4,5-dihydro-2H-furo[2,3-g]indazole-7-carboxamide], the IC50 was 160 nM.

For the compound `Cc1c(C(=O)NC[C@@H]2COCCO2)oc2c1-c1nn(C[C@H]3COCCO3)cc1C1(CCC1)C2` [Example 145], the IC50 was 110 nM.

Consider `Cc1c(C(=O)NC[C@@H]2CCCO2)oc2c1-c1nn(Cc3ccncc3)cc1C1(CCC1)C2` [Example 202], for which the IC50 came out at 77 nM.

Consider `Cn1ccc(CNC(=O)c2oc3c(c2C(F)(F)F)-c2nn(Cc4ccccn4)cc2CC3)n1` [Example 117, N-[(1-methyl-1H-pyrazol-3-yl)methyl]-2-(pyridin-2-ylmethyl)-8-(trifluoromethyl)-4,5-dihydro-2H-furo[2,3-g]indazole-7-carboxamide], for which the IC50 is 55 nM.

As to `Cc1c(C(=O)NC[C@@H]2CCCO2)oc2c1-c1nn(C(=O)N(C)C)cc1C1(CC1)C2` [Example 153], the IC50 was 240 nM.

For `Cc1c(C(=O)NCC2CC3(CC3)CO2)oc2c1-c1nn(Cc3ccccn3)cc1CC2` (racemic) [Example 178], the IC50 turned out to be 92 nM.

As to `O=C(NC[C@@H]1COCCO1)c1oc2c(c1C(F)(F)F)-c1nn(Cc3ccncc3)cc1C1(CC1)C2` [Example 216, N-[(2R)-1,4-Dioxan-2-ylmethyl]-2′-(pyridin-4-ylmethyl)-8′-(trifluormethyl)-2′,5′-dihydrospiro[cyclopropan-1,4′-furo[2,3-g]indazol]-7′-carboxamide], the half-inhibitory concentration (IC50) amounted to 6 nM.

For `CC(=O)N1CCC(Cn2cc3c(n2)-c2c(oc(C(=O)NC[C@@H]4CCCO4)c2C(F)(F)F)CC3)CC1` [Example 305, 2-[(1-acetylpiperidin-4-yl)methyl]-N-{[(2S)-oxolan-2-yl]methyl}-8-(trifluoromethyl)-4,5-dihydro-2H-furo[2,3-g]indazole-7-carboxamide], the IC50 stood at 16 nM.

`Cc1cc(Cn2cc3c(n2)-c2c(oc(C(=O)NC[C@@H]4COCCO4)c2C)CC3)ccn1` [Example 80, N-[(2R)-1,4-dioxan-2ylmethyl]-8-methyl-2-[(2-methylpyridin-4-yl)methyl]-4,5-dihydro-2H-furo[2,3-g]indazole-7-carboxamide]: the IC50 came to 57 nM.

With `O=C(NC[C@@H]1CCCO1)c1oc2c(c1C(F)(F)F)-c1nn(CC3CCN(C(=O)C4CC4)CC3)cc1CC2` [Example 286, 2-{[1-(cyclopropanecarbonyl)piperidin-4-yl]methyl}-N-{[(2S)-oxolan-2-yl]methyl}-8-(trifluoromethyl)-4,5-dihydro-2H-furo[2,3-g]indazole-7-carboxamide], the IC50 turned out to be 11 nM.

On to `O=C(NCc1cncs1)c1oc2c(c1C(F)(F)F)-c1nn(C[C@H]3COCCO3)cc1CC2` [Example 230, 2-[(2S)-1,4-Dioxan-2-ylmethyl]-N-(1,3-thiazol-5-ylmethyl)-8-(trifluormethyl)-4,5-dihydro-2H-furo[2,3-g]indazol-7-carboxamide], for which the IC50 came to 881 nM.

Regarding `COCC(=O)N1CCC(Cn2cc3c(n2)-c2c(oc(C(=O)NC[C@@H]4CCCO4)c2C(F)(F)F)CC3)CC1` [Example 284, 2-{[1-(methoxyacetyl)piperidin-4-yl]methyl}-N-{[(2S)-oxolan-2-yl]methyl}-8-(trifluoromethyl)-4,5-dihydro-2H-furo[2,3-g]indazole-7-carboxamide], the concentration for half-maximal inhibition (IC50) came out at 86 nM.

As for `Cc1c(C(=O)NCC2CCC(C)O2)oc2c1-c1nn(Cc3ccccn3)cc1CC2` (mixture of isomers) [Example 176], the concentration for half-maximal inhibition (IC50) is 118 nM.

`Cc1c(C(=O)NCC2CCCCO2)oc2c1-c1nn(Cc3ccccn3)cc1CC2` (racemic) [Example 172]: the IC50 was 12000 nM.

Turning to `Cc1c(C(=O)NC[C@@H]2COCCO2)oc2c1-c1nn(C[C@H]3COCCO3)cc1C(C(F)(F)F)C2` (mixture of isomers) [Example 265, (4±)-N-{[(2R)-1,4-dioxan-2-yl]methyl}-2-{[(2S)-1,4-dioxan-2-yl]methyl}-8-methyl-4-(trifluoromethyl)-4,5-dihydro-2H-furo[2,3-g]indazole-7-carboxamide], the IC50 worked out at 238 nM.

For the compound `Cc1c(C(=O)NCc2ccn(C)n2)oc2c1-c1nn(Cc3ccccn3)cc1CC2` [Example 34, 8-methyl-N-[(1-methyl-1H-pyrazol-3-yl)methyl]-2-(pyridin-2-ylmethyl)-4,5-dihydro-2H-furo[2,3-g]indazole-7-carboxamide], the IC50 was determined as 280 nM.

For the compound `Cc1c(C(=O)NC[C@@H]2CCCO2)oc2c1-c1nn(Cc3ccc(C(F)(F)F)cn3)cc1CC2` [Example 57, 8-methyl-N-[(2S)-tetrahydrofuran-2-ylmethyl]-2-{[5-(trifluoromethyl)pyridin-2-yl]methyl}-4,5-dihydro-2H-furo[2,3-g]indazole-7-carboxamide], the IC50 amounted to 190 nM.

For the compound `Cc1c(C(=O)NC[C@@H]2CCCO2)oc2c1-c1nn(Cc3ccccn3)cc1C(C)(C)C2` [Example 148, 4,4,8-trimethyl-2-(pyridin-2-ylmethyl)-N-[(2S)-tetrahydrofuran-2-ylmethyl]-4,5-dihydro-2H-furo[2,3-g]indazole-7-carboxamide], the IC50 was found to be 35 nM.

Consider `Cc1c(C(=O)NC[C@@H]2CCCO2)oc2c1-c1nn(Cc3cncnc3)cc1CC2` [Example 85, 8-methyl-2-(pyrimidin-5-ylmethyl)-N-[(2S)-tetrahydrofuran-2-ylmethyl]-4,5-dihydro-2H-furo[2,3-g]indazole-7-carboxamide], for which the IC50 turned out to be 260 nM.

For the compound `[2H]C([2H])(c1ccccc1)n1cc2c(n1)-c1c(oc(C(=O)NC[C@@H]3CCCO3)c1C)CC2` [Example 135, 8-methyl-2-[phenyl(^2H2)methyl]-N-[(2S)-tetrahydrofuran-2-ylmethyl]-4,5-dihydro-2H-furo[2,3-g]indazole-7-carboxamide], the IC50 amounted to 26 nM.

Turning to `Cc1cnc(CNC(=O)c2oc3c(c2C(F)(F)F)-c2nn(C[C@H]4COCCO4)cc2CC3)cn1` [Example 227, 2-[(2S)-1,4-Dioxan-2-ylmethyl]-N-[(5-methylpyrazin-2-yl)methyl]-8-(trifluormethyl)-4,5-dihydro-2H-furo[2,3-g]indazol-7-carboxamide], the IC50 amounted to 24 nM.
